Assay results from ChEMBL document CHEMBL5120922, “Discovery, Optimization, and Evaluation of Potent and Selective PI3Kδ-γ Dual Inhibitors for the Treatment of B-cell Malignancies” (J Med Chem, 2022).
pIC50: −log10 of the molar value.

Columns and labels:
[1] = target: T1, Phosphatidylinositol 4,5-bisphosphate 3-kinase catalytic subunit gamma isoform (Homo sapiens, UniProt P48736); assay: Inhibition of N-terminal His6-tagged recombinant full length human PI3Kgamma expressed in baculovirus infected Sf21 insect cells at 1 uM by HTRF assay relative to control
T1 sequence (P48736 whole entry, looked up, canonical isoform): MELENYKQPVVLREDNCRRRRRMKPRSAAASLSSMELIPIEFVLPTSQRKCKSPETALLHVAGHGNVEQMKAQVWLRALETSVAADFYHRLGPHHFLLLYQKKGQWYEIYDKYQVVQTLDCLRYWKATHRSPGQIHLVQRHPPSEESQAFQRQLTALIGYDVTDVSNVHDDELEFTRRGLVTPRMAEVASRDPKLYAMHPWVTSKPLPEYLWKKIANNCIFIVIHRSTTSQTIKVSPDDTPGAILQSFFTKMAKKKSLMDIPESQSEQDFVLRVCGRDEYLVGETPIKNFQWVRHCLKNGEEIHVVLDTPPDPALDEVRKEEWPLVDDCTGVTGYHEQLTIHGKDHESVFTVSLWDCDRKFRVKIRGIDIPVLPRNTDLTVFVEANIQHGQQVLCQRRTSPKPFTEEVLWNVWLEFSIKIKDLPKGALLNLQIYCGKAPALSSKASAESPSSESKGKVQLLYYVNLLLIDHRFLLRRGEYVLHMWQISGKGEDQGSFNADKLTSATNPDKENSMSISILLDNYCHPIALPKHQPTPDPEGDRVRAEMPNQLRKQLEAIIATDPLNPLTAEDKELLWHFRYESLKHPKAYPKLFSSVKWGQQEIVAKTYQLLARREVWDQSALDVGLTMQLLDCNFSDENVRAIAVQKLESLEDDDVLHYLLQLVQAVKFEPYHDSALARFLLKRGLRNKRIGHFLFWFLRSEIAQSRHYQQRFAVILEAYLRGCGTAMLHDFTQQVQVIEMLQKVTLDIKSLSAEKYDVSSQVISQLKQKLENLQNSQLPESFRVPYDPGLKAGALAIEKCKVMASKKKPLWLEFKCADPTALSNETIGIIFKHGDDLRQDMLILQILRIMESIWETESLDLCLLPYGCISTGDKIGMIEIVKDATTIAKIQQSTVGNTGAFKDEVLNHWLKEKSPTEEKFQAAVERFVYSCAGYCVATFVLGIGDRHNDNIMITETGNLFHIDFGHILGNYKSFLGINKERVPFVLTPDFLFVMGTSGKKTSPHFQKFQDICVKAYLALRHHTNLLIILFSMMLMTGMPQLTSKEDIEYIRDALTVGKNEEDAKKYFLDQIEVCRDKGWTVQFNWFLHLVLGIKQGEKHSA

[2] = target: T2, Phosphatidylinositol 4,5-bisphosphate 3-kinase catalytic subunit delta isoform (Homo sapiens) (UniProt O00329); assay: Inhibition of N-terminal His6-tagged recombinant full length human PI3Kdelta expressed in baculovirus infected Sf21 insect cells at 0.1 uM by HTRF assay relative to control
T2 sequence (whole entry): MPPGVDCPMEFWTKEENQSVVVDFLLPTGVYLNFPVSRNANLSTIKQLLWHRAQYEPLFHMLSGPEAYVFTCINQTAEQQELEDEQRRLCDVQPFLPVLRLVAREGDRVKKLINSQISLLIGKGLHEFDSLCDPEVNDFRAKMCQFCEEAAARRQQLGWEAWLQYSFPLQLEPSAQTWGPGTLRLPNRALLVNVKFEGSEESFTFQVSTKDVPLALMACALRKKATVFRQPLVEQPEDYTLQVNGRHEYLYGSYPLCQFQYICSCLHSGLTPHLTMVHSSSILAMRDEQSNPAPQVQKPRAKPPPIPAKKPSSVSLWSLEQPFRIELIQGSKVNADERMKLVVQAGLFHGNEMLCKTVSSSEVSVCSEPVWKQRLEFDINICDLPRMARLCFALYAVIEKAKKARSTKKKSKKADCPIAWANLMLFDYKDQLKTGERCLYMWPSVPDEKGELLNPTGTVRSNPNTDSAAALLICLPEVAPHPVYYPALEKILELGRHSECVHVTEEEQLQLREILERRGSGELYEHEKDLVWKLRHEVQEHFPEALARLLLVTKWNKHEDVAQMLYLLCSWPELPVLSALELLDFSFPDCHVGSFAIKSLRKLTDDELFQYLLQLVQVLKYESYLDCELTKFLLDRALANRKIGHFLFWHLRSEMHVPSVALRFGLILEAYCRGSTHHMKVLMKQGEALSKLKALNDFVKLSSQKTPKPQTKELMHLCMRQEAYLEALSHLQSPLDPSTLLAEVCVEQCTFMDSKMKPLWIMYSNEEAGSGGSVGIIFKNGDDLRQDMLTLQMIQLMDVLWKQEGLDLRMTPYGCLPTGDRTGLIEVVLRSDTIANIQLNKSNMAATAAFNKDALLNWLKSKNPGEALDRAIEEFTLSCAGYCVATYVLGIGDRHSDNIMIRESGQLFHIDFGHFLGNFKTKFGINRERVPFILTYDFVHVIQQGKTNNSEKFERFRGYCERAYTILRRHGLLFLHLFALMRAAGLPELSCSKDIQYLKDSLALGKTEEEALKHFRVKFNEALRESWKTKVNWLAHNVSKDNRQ

[3] = target: Phosphatidylinositol 4,5-bisphosphate 3-kinase catalytic subunit beta isoform (Homo sapiens, UniProt P42338); assay: Inhibition of N-terminal His6-tagged recombinant full length human PI3Kbeta expressed in baculovirus infected Sf21 insect cells at 1 uM by HTRF assay relative to control
Sequence of Phosphatidylinositol 4,5-bisphosphate 3-kinase catalytic subunit beta isoform (P42338 whole entry, looked up, canonical isoform): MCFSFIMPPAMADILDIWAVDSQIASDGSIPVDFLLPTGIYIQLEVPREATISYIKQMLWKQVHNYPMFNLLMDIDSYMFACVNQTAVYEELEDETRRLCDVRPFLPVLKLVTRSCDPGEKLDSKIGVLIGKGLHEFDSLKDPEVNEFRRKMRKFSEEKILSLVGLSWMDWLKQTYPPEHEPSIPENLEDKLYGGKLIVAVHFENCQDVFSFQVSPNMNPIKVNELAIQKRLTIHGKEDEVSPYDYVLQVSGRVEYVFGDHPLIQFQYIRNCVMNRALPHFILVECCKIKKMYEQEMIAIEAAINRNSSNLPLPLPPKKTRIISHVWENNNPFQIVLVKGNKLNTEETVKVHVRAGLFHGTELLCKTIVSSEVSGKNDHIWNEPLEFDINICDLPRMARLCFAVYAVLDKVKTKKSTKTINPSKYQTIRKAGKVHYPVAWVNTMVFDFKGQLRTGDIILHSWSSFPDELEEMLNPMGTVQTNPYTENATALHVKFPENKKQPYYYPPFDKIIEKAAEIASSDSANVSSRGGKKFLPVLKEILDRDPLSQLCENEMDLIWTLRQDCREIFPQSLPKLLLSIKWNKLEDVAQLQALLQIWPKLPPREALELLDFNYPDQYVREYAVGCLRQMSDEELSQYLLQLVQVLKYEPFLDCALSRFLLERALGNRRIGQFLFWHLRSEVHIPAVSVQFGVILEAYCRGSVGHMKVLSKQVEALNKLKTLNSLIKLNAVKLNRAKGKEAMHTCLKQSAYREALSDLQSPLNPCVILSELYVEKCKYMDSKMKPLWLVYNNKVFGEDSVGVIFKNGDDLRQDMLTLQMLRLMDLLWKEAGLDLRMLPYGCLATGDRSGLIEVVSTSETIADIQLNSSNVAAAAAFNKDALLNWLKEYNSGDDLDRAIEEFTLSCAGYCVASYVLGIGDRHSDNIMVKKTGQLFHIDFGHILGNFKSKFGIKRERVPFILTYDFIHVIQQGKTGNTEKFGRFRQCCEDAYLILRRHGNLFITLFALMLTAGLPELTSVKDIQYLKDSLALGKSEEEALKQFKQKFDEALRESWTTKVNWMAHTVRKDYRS

[4] = target: T1, Phosphatidylinositol 4,5-bisphosphate 3-kinase catalytic subunit gamma isoform; assay: Inhibition of N-terminal His6-tagged recombinant full length human PI3Kgamma expressed in baculovirus infected Sf21 insect cells at 0.1 uM by HTRF assay relative to control
SUD4 = assay: Antiproliferative activity against human SU-DHL-4 cells assessed as cell growth inhibition measured after 72 hrs by MTT assay; assay type: functional, cell-based; conditions: SU-DHL-4, 72 h
DOHH-2 = assay: Antiproliferative activity against human DOHH-2 cells assessed as cell growth inhibition measured after 72 hrs by MTT assay; assay type: functional, cell-based; conditions: DOHH-2, 72 h
SU-DHL-6 = assay: Antiproliferative activity against human SU-DHL-6 cells assessed as cell growth inhibition measured after 72 hrs by MTT assay; assay type: functional, cell-based; conditions: SU-DHL-6, 72 h
[5] = target: T2, Phosphatidylinositol 4,5-bisphosphate 3-kinase catalytic subunit delta isoform (Homo sapiens); assay: Inhibition of N-terminal His6-tagged recombinant full length human PI3Kdelta expressed in baculovirus infected Sf21 insect cells at 1 uM by HTRF assay relative to control
[6] = target: Phosphatidylinositol 4,5-bisphosphate 3-kinase catalytic subunit alpha isoform (Homo sapiens, UniProt P42336); assay: Inhibition of N-terminal His6-tagged recombinant full length human PI3Kalpha expressed in baculovirus infected Sf21 insect cells at 1 uM by HTRF assay relative to control
Sequence of Phosphatidylinositol 4,5-bisphosphate 3-kinase catalytic subunit alpha isoform (P42336 whole entry, canonical isoform): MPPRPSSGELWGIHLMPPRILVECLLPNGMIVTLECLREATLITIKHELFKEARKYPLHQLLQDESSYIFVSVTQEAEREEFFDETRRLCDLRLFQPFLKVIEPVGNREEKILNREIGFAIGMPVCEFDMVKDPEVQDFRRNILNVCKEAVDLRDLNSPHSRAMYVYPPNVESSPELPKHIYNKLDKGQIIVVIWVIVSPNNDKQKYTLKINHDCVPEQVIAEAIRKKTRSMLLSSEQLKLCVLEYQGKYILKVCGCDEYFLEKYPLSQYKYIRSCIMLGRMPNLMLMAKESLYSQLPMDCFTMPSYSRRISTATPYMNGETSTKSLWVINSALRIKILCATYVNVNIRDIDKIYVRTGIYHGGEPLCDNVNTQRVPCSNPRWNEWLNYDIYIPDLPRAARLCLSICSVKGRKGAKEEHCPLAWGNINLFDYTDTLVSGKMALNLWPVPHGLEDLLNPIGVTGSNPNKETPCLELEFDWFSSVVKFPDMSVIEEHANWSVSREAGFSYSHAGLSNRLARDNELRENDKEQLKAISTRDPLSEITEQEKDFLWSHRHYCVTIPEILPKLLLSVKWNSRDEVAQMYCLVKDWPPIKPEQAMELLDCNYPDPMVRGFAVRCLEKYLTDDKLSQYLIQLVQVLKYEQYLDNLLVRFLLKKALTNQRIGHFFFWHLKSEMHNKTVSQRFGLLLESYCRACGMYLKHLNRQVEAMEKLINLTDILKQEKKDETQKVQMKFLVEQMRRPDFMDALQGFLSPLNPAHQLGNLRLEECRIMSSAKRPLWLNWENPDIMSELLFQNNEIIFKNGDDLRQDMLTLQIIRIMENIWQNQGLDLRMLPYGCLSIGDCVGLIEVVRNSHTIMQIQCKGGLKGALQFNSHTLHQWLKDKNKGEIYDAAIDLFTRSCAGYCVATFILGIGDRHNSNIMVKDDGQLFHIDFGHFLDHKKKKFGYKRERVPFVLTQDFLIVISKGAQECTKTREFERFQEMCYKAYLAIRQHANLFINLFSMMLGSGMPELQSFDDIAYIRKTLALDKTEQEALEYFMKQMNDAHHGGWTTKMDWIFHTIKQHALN

Row | SMILES | inhibition [1] [%] | inhibition [2] [%] | inhibition [3] [%] | inhibition [4] [%] | pIC50 (SUD4) | pIC50 (DOHH-2) | pIC50 (SU-DHL-6) | inhibition [5] [%] | inhibition [6] [%]
1 | C[C@H]1CC[C@@H](c2nc3cccc(Cl)c3c(=O)n2-c2ccccc2)N1c1cc(Cl)nc(N)n1 | 96 | 76 | 92 | 97 | 5.54 | 5.53 | 5.50 | 23 | 88
2 | C[C@H]1CC[C@@H](c2nc3c(F)cccc3c(=O)n2-c2cccnc2)N1c1nc(N)nc(N)c1C#N | – | 6 | 23 | 52 | 6.21 | 6.36 | 6.04 | – | 30
3 | Cc1cccc(C#Cc2cccc3nc([C@@H]4CC[C@H](C)N4c4nc(N)nc(N)c4C#N)n(-c4ccccc4)c(=O)c23)c1 | – | 64 | 69 | 83 | 5.48 | 5.38 | 5.58 | – | 35
4 | COc1ccc(-c2cccc3nc([C@@H]4CC[C@H](C)N4c4nc(N)nc(N)c4C#N)n(-c4ccccc4)c(=O)c23)cc1 | – | – | 44 | 41 | 6.05 | 5.94 | 6.15 | – | 5
5 | Cc1ccc(C#Cc2cccc3nc([C@@H]4CC[C@H](C)N4c4nc(N)nc(N)c4C#N)n(-c4ccccc4)c(=O)c23)cc1 | – | 56 | 78 | 80 | 5.91 | 6.17 | 5.76 | – | 35
6 | C[C@H]1CC[C@@H](c2nc3cccc(Cl)c3c(=O)n2N2CCOCC2)N1c1nc(N)nc(N)c1C#N | 0 | 10 | 33 | 10 | 6.70 | 6.43 | 6.51 | 11 | 72
7 | COc1cccc(C#Cc2cccc3nc([C@@H]4CC[C@H](C)N4c4nc(N)nc(N)c4C#N)n(-c4ccccc4)c(=O)c23)c1 | – | 9 | 42 | 35 | 6.29 | 6.35 | 6.17 | – | 16
8 | C[C@H]1CC[C@@H](c2nc3cccc(Cl)c3c(=O)n2-c2cccc(F)c2)N1c1nc(N)nc2[nH]cnc12 | – | 5 | 57 | 1 | 6.46 | 5.58 | 6.32 | -4 | 58
9 | C[C@H]1CC[C@@H](c2nc3cccc(-c4cnn(C(F)F)c4)c3c(=O)n2-c2ccccc2)N1c1nc(N)nc(N)c1C#N | – | – | 46 | 20 | 6.48 | 6.17 | 6.33 | – | 26
10 | C[C@H]1CC[C@@H](c2nc3cc(F)ccc3c(=O)n2-c2cccnc2)N1c1nc(N)nc(N)c1C#N | – | 7 | 44 | 70 | 6.24 | 6.24 | 5.77 | – | 39
11 | C[C@H]1CC[C@@H](c2nc3ccc(Cl)cc3c(=O)n2-c2cccnc2)N1c1nc(N)nc(N)c1C#N | – | 89 | 100 | 89 | 6.05 | 5.98 | 6.11 | – | 56
12 | C[C@H]1CC[C@@H](c2nc3cccc(C#Cc4ccccn4)c3c(=O)n2-c2ccccc2)N1c1nc(N)nc(N)c1C#N | – | 6 | 41 | 29 | 6.49 | 6.10 | 6.22 | – | 11
13 | C[C@H]1CC[C@@H](c2nc3cccc(-c4cnn(C5CC5)c4)c3c(=O)n2-c2cccnc2)N1c1nc(N)nc(N)c1C#N | – | 21 | 63 | 34 | 6.15 | 5.67 | 6.32 | – | 31
14 | Cc1ccccc1C#Cc1cccc2nc([C@@H]3CC[C@H](C)N3c3nc(N)nc(N)c3C#N)n(-c3ccccc3)c(=O)c12 | – | 62 | 78 | 65 | 5.45 | 6.12 | 5.61 | – | 23
15 | C[C@H]1CC[C@@H](c2nc3cccc(C#Cc4ccccc4)c3c(=O)n2-c2ccccc2)N1c1nc(N)nc(N)c1C#N | – | -3 | 11 | 40 | 6.17 | 5.74 | 6.40 | – | 22
16 | C[C@H]1CC[C@@H](c2nc3cccc(F)c3c(=O)n2-c2cccnc2)N1c1nc(N)nc(N)c1C#N | – | 7 | 36 | 67 | 6.92 | 6.25 | 6.40 | – | 44
17 | C[C@H]1CC[C@@H](c2nc3cccc(C#Cc4ccsc4)c3c(=O)n2-c2ccccc2)N1c1nc(N)nc(N)c1C#N | – | 5 | 15 | 49 | 6.27 | 6.19 | 6.28 | – | -2
18 | Cc1cccc2nc([C@@H]3CC[C@H](C)N3c3nc(N)nc(N)c3C#N)n(-c3cccnc3)c(=O)c12 | – | -2 | -3 | 21 | 7.30 | 6.89 | 6.64 | – | 20
19 | COc1ccc(C#Cc2cccc3nc([C@@H]4CC[C@H](C)N4c4nc(N)nc(N)c4C#N)n(-c4ccccc4)c(=O)c23)cc1 | – | 43 | 62 | 83 | 5.98 | 5.40 | 5.98 | – | 25
20 | COc1cncc(-c2cccc3nc([C@@H]4CC[C@H](C)N4c4nc(N)nc(N)c4C#N)n(-c4cccnc4)c(=O)c23)c1 | – | 8 | 54 | 23 | 6.23 | 6.09 | 6.82 | – | 10
21 | C[C@H]1CC[C@@H](c2nc3cccc(-c4cncnc4)c3c(=O)n2-c2ccccc2)N1c1nc(N)nc(N)c1C#N | – | – | 49 | 57 | 6.49 | 5.71 | 6.54 | – | 26
22 | C[C@H](Nc1ncnc2nc[nH]c12)c1cc2cccc(Cl)c2c(=O)n1-c1ccccc1 [DUVELISIB] | – | – | – | – | 6.57 | 6.70 | 6.41 | – | –
23 | COc1ccc(-c2cccc3nc([C@@H]4CC[C@H](C)N4c4nc(N)nc(N)c4C#N)n(-c4ccccc4)c(=O)c23)cn1 | – | – | 77 | 29 | 6.22 | 6.20 | 6.41 | – | 14
24 | C[C@H]1CC[C@@H](c2nc3ccc(F)cc3c(=O)n2-c2cccnc2)N1c1nc(N)nc(N)c1C#N | – | 43 | 98 | 91 | 5.91 | 5.72 | 5.58 | – | 63
25 | C[C@H]1CC[C@@H](c2nc3cccc(-c4cnn(C5CC5)c4)c3c(=O)n2-c2cccc(F)c2)N1c1nc(N)nc(N)c1C#N | – | 16 | 59 | 29 | 6.18 | 6.01 | 6.60 | – | 25
